One series has as its system B16F10 cells. Nature of the series: Intracellular melanin content measurement. It counts as cell-based, murine. The following applies: for melanin, % of control (normalized to 100%): as-synthesized ED, no α-MSH, concentration not given. As for the experimental part:
Melanoma (1.5 × 10^5) cells were seeded in cell culture plates and allowed to attach for 24 hr. Then each eugenol derivative was added and tested separately for melanin activation after 24 hr of incubation. After incubation, cells were detached using trypsin/EDTA and centrifuged at 1000 rpm for 5 min to collect the cell pellets. The cell pellets were solubilized in 1N NaOH at 60 °C for 1 hr. The melanin content was measured spectrophotometrically at 405 nm wavelength using a microplate reader (BioTek, synergy HT)[56]. […] Plasma-treated and non-plasma-treated ED (4b and 6a) were added to the cells, pre-incubated with or without α-MSH (100 nM) for a further 24 hr and melanin content was assayed as described above. Kojic acid can inhibit and α-MSH can stimulate the melanin in the cells, therefore we used them as negative and positive controls.

Series [1] addresses T1, mushroom tyrosinase (Agaricus bisporus, UniProt C7FF04). Nature of the series: Circular dichroism analysis of the secondary structure of mushroom tyrosinase. The following applies: 0.1 mM; for α-helix % of tyrosinase: enzyme alone 16; for β-sheet % of tyrosinase: enzyme alone 33; for Turn % of tyrosinase: enzyme alone 7; for Random coil % of tyrosinase: enzyme alone 44. The method, then:
The structural changes in tyrosinase after incubation with ED and PAED were plotted in Fig. 5. […] We observed that the control tyrosinase enzyme has 16% α-helix, 33% β-sheets, 7% turn, and 44% random coil. After the interaction with 4a, the amount of α-helix changed to 15% and β-sheets changed to 35%. On the other hand, after the plasma treatment of 4a the amount of α-helix changed to 17% and β-sheets changed to 31%. While, after interacting with 4b, the amount of α-helix is 16.0%, β-sheets 29%, turn 10%, and random coil is 45.0%. However, plasma-activated 4b interacts differently with tyrosinase enzyme, showing 16% α-helix, 33% β-sheets, 6% turn, and 45% random coil. When 6a ED interacted with tyrosinase enzyme, we observed 20% α-helix, 25% β-sheets, 11.0% turn, and 44% random coil. However, 6a PAED interacts with tyrosinase enzyme, the α-helix changed to 19%, β-sheets 28%, turn 9%, and random coil 44%. […] To obtain further detail on the interaction of the ED with tyrosinase enzyme, we studied the molecular docking. For the CD spectroscopic studies[65][66][67] a J-815 spectrophotometer (Jasco, Japan) was used, equipped with a Peltier system that controlled the temperature. (1S)-(+)-10-camphorsulfonic acid (Aldrich, Milwaukee, WI) with a molar extinction coefficient of 34.5 M/cm at 285 nm and a 2.36 M/cm molar ellipticity (θ) at 295 nm was used for the CD calibrations. The samples were pre-equilibrated at the desired temperature for 15 min, and the scan speed was fixed for adaptative sampling (error F 0.01) with a response time of 1 sec and a 1 nm bandwidth. The secondary structure of the mushroom tyrosinase was monitored by using a 1.0 cm path length cuvette. The mushroom tyrosinase (0.2 mg/ml) was prepared in phosphate buffer (20 mM) at pH 6.8 for CD analysis. We used the 0.1 mM concentration of all derivatives in 1 ml buffer solution, with or without 10 min plasma treatment. All spectra were collected in triplicate from 200 to 250 nm and the background was corrected against the buffer (blank). The percentages of secondary structures of proteins were calculated using inbuilt Jasco software.
Target sequence in this assay (C7FF04 2-392): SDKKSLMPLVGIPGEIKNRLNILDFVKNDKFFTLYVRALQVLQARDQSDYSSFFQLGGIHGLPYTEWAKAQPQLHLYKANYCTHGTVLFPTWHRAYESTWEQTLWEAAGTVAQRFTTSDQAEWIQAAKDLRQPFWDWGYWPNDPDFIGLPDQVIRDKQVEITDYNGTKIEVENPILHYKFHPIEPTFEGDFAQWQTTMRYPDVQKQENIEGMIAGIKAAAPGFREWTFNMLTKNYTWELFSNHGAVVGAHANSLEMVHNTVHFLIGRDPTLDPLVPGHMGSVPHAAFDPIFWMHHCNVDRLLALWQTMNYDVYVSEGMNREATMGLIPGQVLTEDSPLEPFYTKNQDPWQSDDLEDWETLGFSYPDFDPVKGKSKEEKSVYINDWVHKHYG

In series [2] the target is T1, mushroom tyrosinase. Nature of the series: Mushroom tyrosinase inhibition assay (L-DOPA, dopachrome at 492 nm). Type of series: biochemical. Also on record: purchased Sigma Chemical Co. USA. The following applies: mean ± SD, read-out: Tyrosinase inhibitory activity IC50 (converted). The method, then:
To determine the action of ED and PAED, we checked the mushroom tyrosinase inhibitory activity in a cell-free environment. […] Moreover, after plasma treatment for different time intervals, we observed that inhibition activity of 4a, 4b, 4d and 6a was improved more as compared to without treatment. […] However, we observed the highest relative improvement in IC50 value of compound 4b among all ED compounds at 10 min plasma treatment. […] Therefore, we used the 4b and 6a compounds for further investigations, based on the decrease in IC50 value to a global minimum of the experiment after plasma treatment.
The mushroom tyrosinase was used for in vitro bioassays as described previously with some modifications. Briefly, 140 μl of phosphate buffer (20 mM, pH 6.8), 20 μl of mushroom tyrosinase (30 U/ml), and 20 μl of the inhibitor solution were placed in the wells of a 96-well plate. After pre-incubation for 10 min at room temperature, 20 μl of L-DOPA (3,4-dihydroxyphenylalanine) (0.85 mM) was added and the plate was further incubated at 25 °C for 20 min. Subsequently the absorbance of dopachrome was measured at 492 nm using a micro plate reader (OPTI Max, Tunable). Kojic acid was used as a reference inhibitor. The extent of inhibition by the test compounds was expressed as the […] necessary to achieve 50% inhibition (IC50). Each concentration was analyzed in three independent experiments run in triplicate. The IC50 values were determined by the data analysis and graphing software, Origin.
Target sequence in this assay (C7FF04 1-392): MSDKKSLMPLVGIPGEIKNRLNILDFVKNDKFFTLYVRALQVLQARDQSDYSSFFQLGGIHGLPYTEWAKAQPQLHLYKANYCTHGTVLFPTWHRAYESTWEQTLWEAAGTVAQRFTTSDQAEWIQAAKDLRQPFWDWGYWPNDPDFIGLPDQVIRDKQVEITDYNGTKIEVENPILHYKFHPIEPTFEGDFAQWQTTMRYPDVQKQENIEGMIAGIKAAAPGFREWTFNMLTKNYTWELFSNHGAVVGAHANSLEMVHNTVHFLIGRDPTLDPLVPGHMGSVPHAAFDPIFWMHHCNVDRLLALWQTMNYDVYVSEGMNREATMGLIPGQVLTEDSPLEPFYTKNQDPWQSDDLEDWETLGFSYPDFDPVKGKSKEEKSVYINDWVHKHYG

The mark [3] stands for this setting: tyrosinase + 10 min plasma-treated compound.
Where [4] appears, read: tyrosinase + as-synthesized compound (0 min plasma).
Where [5] appears, read: Con: as-synthesized, before plasma treatment, cell-free.
Setting [6] is: compound after 3 min N2 APPJ plasma treatment.
[7] abbreviates: compound after 5 min N2 APPJ plasma treatment.
[8] abbreviates: compound after 10 min N2 APPJ plasma treatment.

Experimental findings from PMC4773869, “Influence of plasma-activated compounds on melanogenesis and tyrosinase activity” (Scientific Reports, 2016) are described below.

Like-named read-outs stand apart in the source and are kept apart here.

As a reminder, the melting point is the temperature, or range, at which the solid turns liquid. What is called IC50 is the midpoint of a concentration-inhibition curve. The term inhibition denotes the drop in the measured response relative to a control, in per cent.

Consider `C=CCc1ccc(OC(=O)COC(=O)c2cccc(O)c2)c(OC)c1` [4a, 2-[2-methoxy-4-(prop-2-en-1-yl)phenoxy]-2-oxoethyl 3-hydroxybenzoate], for which the melting point lay in the range of 70 to 72 °C. Further, the “melanin, % of control (normalized to 100%)” value with B16F10 cells was 116%. For the same compound, at mushroom tyrosinase [1] (setting [3]), the “α-helix % of tyrosinase” value amounted to 17% and the “β-sheet % of tyrosinase” value worked out at 31%. Further, on mushroom tyrosinase [1] (setting [4]), the “Turn % of tyrosinase” value was determined as 5%, the “α-helix % of tyrosinase” value worked out at 15%, the “β-sheet % of tyrosinase” value is 35% and the “Random coil % of tyrosinase” value worked out at 45%. In addition, on mushroom tyrosinase [2] (setting [5]), the IC50 is 73 µM. Further, at mushroom tyrosinase [2] (setting [6]), the IC50 is 70.1 µM. The IC50 at mushroom tyrosinase [2] (setting [7]) was 58.4 µM. The IC50 at mushroom tyrosinase [2] (setting [8]) was 49.7 µM.
On to `C=CCc1ccc(OC(=O)COC(=O)c2ccc(O)cc2O)c(OC)c1` [4c, 2-[2-methoxy-4-(prop-2-en-1-yl)phenoxy]-2-oxoethyl 2,4-dihydroxybenzoate], for which the melting point lay in the range of 99 to 101 °C. Further, in the series on B16F10 cells, the “melanin, % of control (normalized to 100%)” value stood at 117%. Also, on mushroom tyrosinase [1] (setting [4]), the “Turn % of tyrosinase” value is listed as 4%, the “α-helix % of tyrosinase” value is on record as 16%, the “β-sheet % of tyrosinase” value was found to be 35% and the “Random coil % of tyrosinase” value worked out at 45%. Besides, the IC50 at mushroom tyrosinase [2] (setting [5]) was 41.9 µM. The concentration for half-maximal inhibition (IC50) on mushroom tyrosinase [2] (setting [6]) was 53 µM. Also, the IC50 on mushroom tyrosinase [2] (setting [7]) is 67 µM. In addition, the half-inhibitory concentration (IC50) at mushroom tyrosinase [2] (setting [8]) is 80.9 µM.
Regarding `C=CCc1ccc(OC(=O)COC(=O)c2ccc(O)c(O)c2)c(OC)c1` [4d, 2-[2-methoxy-4-(prop-2-en-1-yl)phenoxy]-2-oxoethyl 3,4-dihydroxybenzoate], the melting point was in the range of 148 to 151 °C. Moreover, the “melanin, % of control (normalized to 100%)” value in the series with B16F10 cells is 110%. For the same compound, on mushroom tyrosinase [1] (setting [4]), the “Turn % of tyrosinase” value is 7%, the “α-helix % of tyrosinase” value came out at 15%, the “β-sheet % of tyrosinase” value amounted to 33% and the “Random coil % of tyrosinase” value is given as 45%. For the same compound, the IC50 at mushroom tyrosinase [2] (setting [5]) is 162 µM. The concentration for half-maximal inhibition (IC50) on mushroom tyrosinase [2] (setting [6]) was 131 µM. Besides, the IC50 at mushroom tyrosinase [2] (setting [7]) is 100 µM. Further, the 50% inhibitory concentration (IC50) at mushroom tyrosinase [2] (setting [8]) was 80.9 µM.
On to `C=CCc1ccc(OC(=O)COC(=O)c2cc(O)cc(O)c2)c(OC)c1` [4e, 2-[2-methoxy-4-(prop-2-en-1-yl)phenoxy]-2-oxoethyl 3,5-dihydroxybenzoate], for which the melting point fell in the range of 107 to 109 °C. Moreover, the “melanin, % of control (normalized to 100%)” value in the series with B16F10 cells came to 115%. In addition, on mushroom tyrosinase [1] (setting [4]), the “Turn % of tyrosinase” value is on record as 6%, the “α-helix % of tyrosinase” value stood at 15%, the “β-sheet % of tyrosinase” value was found to be 33% and the “Random coil % of tyrosinase” value was 46%. The half-inhibitory concentration (IC50) on mushroom tyrosinase [2] (setting [5]) was 53 µM. The half-maximal inhibitory concentration (IC50) at mushroom tyrosinase [2] (setting [6]) was 215 µM. Besides, the IC50 at mushroom tyrosinase [2] (setting [7]) is 201 µM. Besides, the IC50 at mushroom tyrosinase [2] (setting [8]) is 156 µM.
As to `C=CCc1ccc(OC(=O)COC(=O)/C=C/c2ccc(Cl)cc2)c(OC)c1` [6b, 2-[2-methoxy-4-(prop-2-en-1-yl)phenoxy]-2-oxoethyl(2E)-3-(4-chloroyphenyl)prop-2-enoate], the melting point was in the range of 86 to 88 °C. Further, the “melanin, % of control (normalized to 100%)” value in the series on B16F10 cells was determined as 119%. Also, the “melanin stimulation (in words)” value in the series with B16F10 cells (with or without plasma treatment, presence or absence of α-MSH (Fig. 10)) is listed as “Melanin stimulation was observed”. Also, at mushroom tyrosinase [1] (setting [4]), the “Turn % of tyrosinase” value came out at 3%, the “α-helix % of tyrosinase” value was found to be 15%, the “β-sheet % of tyrosinase” value came to 37% and the “Random coil % of tyrosinase” value was 45%. Further, the IC50 on mushroom tyrosinase [2] (setting [5]) is 18.1 µM. The half-maximal inhibitory concentration (IC50) at mushroom tyrosinase [2] (setting [6]) was 85.3 µM. In addition, the IC50 at mushroom tyrosinase [2] (setting [7]) was 103 µM. Also, on mushroom tyrosinase [2] (setting [8]), the IC50 is 142 µM.
`O=c1cc(CO)occ1O` [Kojic acid, reference compound]: the inhibition at 250 µg/mL with B16F10 cells (Mus musculus, B16-F10, 250 μg/ml, absence of α-MSH, negative control, read-out: inhibition of melanin synthesis compared to the control) was ~12%.
For the compound `O=C(COC(=O)c1ccc(O)cc1)Oc1ccc(C(=O)/C=C/O)cc1OCO` [Plasma treated 4b], in the series with B16F10 cells (10 min plasma-treated, presence of α-MSH), the “melanin synthesis, % of control (100%)” value is recorded as 188%. Also, on mushroom tyrosinase [1] (setting [3]), the “Turn % of tyrosinase” value is on record as 6%, the “α-helix % of tyrosinase” value stood at 16%, the “β-sheet % of tyrosinase” value is 33% and the “Random coil % of tyrosinase” value came to 45%.
Regarding `C=CC(=O)c1ccc(OC(=O)COC(=O)/C=C/c2ccc(O)cc2)c(OC)c1` [Plasma treated 6a], at mushroom tyrosinase [1] (setting [3]), the “Turn % of tyrosinase” value turned out to be 9%, the “α-helix % of tyrosinase” value stood at 19%, the “β-sheet % of tyrosinase” value was found to be 28% and the “Random coil % of tyrosinase” value was 44%.
